# Assay results from patent US20040063662A1, “Selenophene anti-tumor agents” (priority 1996, published 2004).
# Tests used:
# [1] = test system: NCI-H23; experiment: NCI human tumor cell panel: NCI-H23 (Non-Small Cell Lung Cancer); type: cell-based; conditions: NCI-H23, Non-Small Cell Lung Cancer
# [2] = test system: LOX IMVI; experiment: NCI human tumor cell panel: LOX IMVI (Melanoma); type: cell-based; conditions: Melanoma
# [3] = test system: NCI-H322M; experiment: cells; type: cell-based; conditions: Homo sapiens, Non-Small Cell Lung Cancer
# [4] = test system: SNB-75; experiment: NCI human tumor cell panel: SNB-75 (CNS Cancer); type: cell-based; conditions: SNB-75, CNS Cancer
# [5] = test system: HT29; experiment: NCI human tumor cell panel: HT29 (Colon Cancer); type: cell-based; conditions: HT-29, HT29, Colon Cancer
# [6] = test system: HCT-15; experiment: NCI human tumor cell panel: HCT-15 (Colon Cancer); type: cell-based; conditions: HCT-15, Colon Cancer
# [7] = test system: OVCAR-5; experiment: NCI human tumor cell panel: OVCAR-5 (Ovarian Cancer); type: cell-based; conditions: OVCAR-5, Ovarian Cancer
# [8] = test system: SF-539; experiment: NCI human tumor cell panel: SF-539 (CNS Cancer); type: cell-based; conditions: SF-539, CNS Cancer
# [9] = test system: IGROV1; experiment: NCI human tumor cell panel: IGROV1 (Ovarian Cancer); type: cell-based; conditions: IGROV-1, IGROV1, Ovarian Cancer
# [10] = test system: MCF7/ADR-RES; experiment: NCI human tumor cell panel: MCF7/ADR-RES (Breast Cancer); type: cell-based; conditions: Breast Cancer
# [11] = test system: HOP-92; experiment: NCI human tumor cell panel: HOP-92 (Non-Small Cell Lung Cancer)
# [12] = test system: HS 578T; experiment: NCI human tumor cell panel: HS 578T (Breast Cancer); type: cell-based; conditions: Breast Cancer
# [13] = test system: SNB-19; experiment: NCI human tumor cell panel: SNB-19 (CNS Cancer); type: cell-based; conditions: SNB-19, CNS Cancer
# [14] = test system: M14; experiment: NCI human tumor cell panel: M14 (Melanoma); type: cell-based; conditions: M14, Melanoma
# [15] = test system: SK-MEL-28; experiment: NCI human tumor cell panel: SK-MEL-28 (Melanoma); type: cell-based; conditions: SK-MEL-28, Melanoma
# [16] = test system: SK-MEL-2; experiment: NCI human tumor cell panel: SK-MEL-2 (Melanoma); type: cell-based; conditions: SK-MEL-2, Melanoma
# [17] = test system: U251; experiment: NCI human tumor cell panel: U251 (CNS Cancer); type: cell-based; conditions: U-251, U251, CNS Cancer
# [18] = test system: MDA-MB-435; experiment: NCI human tumor cell panel: MDA-MB-435 (Breast Cancer); type: cell-based; conditions: MDA-MB-435, Breast Cancer
# [19] = test system: PC-3; experiment: NCI human tumor cell panel: PC-3 (Prostate Cancer); type: cell-based; conditions: PC-3, Prostate Cancer
# [20] = test system: 786-0; experiment: NCI human tumor cell panel: 786-0 (Renal Cancer); type: cell-based; conditions: 786-0, Renal Cancer
# [21] = test system: SR; experiment: NCI human tumor cell panel: SR (Leukemia); type: cell-based; conditions: Leukemia
# [22] = test system: HOP-62; experiment: NCI human tumor cell panel: HOP-62 (Non-Small Cell Lung Cancer); type: cell-based; conditions: HOP-62, Non-Small Cell Lung Cancer
# [23] = test system: EKVX; experiment: NCI human tumor cell panel: EKVX (Non-Small Cell Lung Cancer); type: cell-based; conditions: Non-Small Cell Lung Cancer
# [24] = test system: TK-10; experiment: NCI human tumor cell panel: TK-10 (Renal Cancer); type: cell-based; conditions: TK-10, Renal Cancer
# [25] = test system: OVCAR-4; experiment: NCI human tumor cell panel: OVCAR-4 (Ovarian Cancer); type: cell-based; conditions: OVCAR-4, Ovarian Cancer, read-out: Log10 TGI (converted)
# [26] = test system: MDA-N; experiment: NCI human tumor cell panel: MDA-N (Breast Cancer); type: cell-based; conditions: Breast Cancer
# [27] = test system: NCI-H522; experiment: NCI human tumor cell panel: NCI-H522 (Non-Small Cell Lung Cancer)
# [28] = test system: NCI-H460; experiment: NCI human tumor cell panel: NCI-H460 (Non-Small Cell Lung Cancer); type: cell-based; conditions: NCI-H460, Non-Small Cell Lung Cancer
# [29] = test system: SF-295; experiment: NCI human tumor cell panel: SF-295 (CNS Cancer); type: cell-based; conditions: SF-295, CNS Cancer
# [30] = test system: BT-549; experiment: NCI human tumor cell panel: BT-549 (Breast Cancer); type: cell-based; conditions: BT-549, Breast Cancer
# [31] = test system: HCC-2998; experiment: NCI human tumor cell panel: HCC-2998 (Colon Cancer); type: cell-based; conditions: HCC-2998, Colon Cancer
# [32] = read-out: Log10 GI50 (converted)
# [33] = read-out: Log10 TGI (converted)
structure (smiles),measurement,setting,value
O=Cc1ccc(-c2ccc(-c3ccc(C=O)s3)[se]2)s1 [NSC 675345],GI50,[1]; [32],21.9 µM
same,IC (TGI),[1]; [33],> 100 µM
same,GI50,[2]; [32],> 100 µM
same,IC (TGI),[2]; [33],> 100 µM
same,GI50,[3]; [32],> 100 µM
same,IC (TGI),[3]; [33],> 100 µM
same,GI50,[4]; [32],52.5 µM
same,IC (TGI),[4]; [33],> 100 µM
same,GI50,[5]; [32],> 100 µM
same,IC (TGI),[5]; [33],> 100 µM
same,GI50,[6]; [32],> 100 µM
same,IC (TGI),[6]; [33],> 100 µM
same,GI50,[7]; [32],1.55 µM
same,IC (TGI),[7]; [33],5.37 µM
same,GI50,[8]; [32],> 100 µM
same,IC (TGI),[8]; [33],> 100 µM
same,GI50,[9]; [32],4.37 µM
same,IC (TGI),[9]; [33],22.9 µM
same,GI50,[10]; [32],> 100 µM
same,IC (TGI),[10]; [33],> 100 µM
same,GI50,"[11]; HOP-92, read-out: Log10 GI50 (converted)",14.5 µM
same,IC (TGI),"[11]; HOP-92, read-out: Log10 TGI",55 µM
same,GI50,[12]; [32],67.6 µM
same,IC (TGI),[12]; [33],> 100 µM
same,GI50,[13]; [32],31.6 µM
same,IC (TGI),[13]; [33],> 100 µM
same,GI50,[14]; [32],> 100 µM
same,IC (TGI),[14]; [33],> 100 µM
same,GI50,[15]; [32],> 100 µM
same,IC (TGI),[15]; [33],> 100 µM
same,GI50,[16]; [32],77.6 µM
same,IC (TGI),[16]; [33],> 100 µM
same,GI50,[17]; [32],2.29 µM
same,IC (TGI),[17]; [33],21.4 µM
same,GI50,[18]; [32],58.9 µM
same,IC (TGI),[18]; [33],> 100 µM
same,GI50,[19]; [32],> 100 µM
same,IC (TGI),[19]; [33],> 100 µM
same,GI50,[20]; [32],11 µM
same,IC (TGI),[20]; [33],> 100 µM
same,GI50,[21]; [32],> 100 µM
same,IC (TGI),[21]; [33],> 100 µM
same,GI50,[22]; [32],47.9 µM
same,IC (TGI),[22]; [33],> 100 µM
same,GI50,[23]; [32],> 100 µM
same,IC (TGI),[23]; [33],> 100 µM
same,GI50,[24]; [32],> 100 µM
same,IC (TGI),[24]; [33],> 100 µM
same,IC (TGI),[25],> 100 µM
same,GI50,[26]; [32],> 100 µM
same,IC (TGI),[26]; [33],> 100 µM
same,GI50,"[27]; NCI-H522, read-out: Log10 GI50 (converted)",85.1 µM
same,IC (TGI),"[27]; NCI-H522, read-out: Log10 TGI",> 100 µM
same,GI50,[28]; [32],0.813 µM
same,IC (TGI),[28]; [33],> 100 µM
same,GI50,[29]; [32],38.9 µM
same,IC (TGI),[29]; [33],> 100 µM
same,GI50,[30]; [32],> 100 µM
same,IC (TGI),[30]; [33],> 100 µM
same,GI50,[31]; [32],2.34 µM
same,IC (TGI),[31]; [33],6.92 µM
